From US9913828B2, “Benzothiazolone compound” (Novartis AG, priority 2011, dated 2018)

Key:
[1] = target: T1, α1A AR (Homo sapiens, UniProt P35348); assay: Ca2+ FLIPR assay in human adrenergic Alpha1A CHO-K1 cell line (Test 1); format: cell-based; conditions: read-out: CHO cells EC50 α1A AR
T1 sequence (P35348 1-466): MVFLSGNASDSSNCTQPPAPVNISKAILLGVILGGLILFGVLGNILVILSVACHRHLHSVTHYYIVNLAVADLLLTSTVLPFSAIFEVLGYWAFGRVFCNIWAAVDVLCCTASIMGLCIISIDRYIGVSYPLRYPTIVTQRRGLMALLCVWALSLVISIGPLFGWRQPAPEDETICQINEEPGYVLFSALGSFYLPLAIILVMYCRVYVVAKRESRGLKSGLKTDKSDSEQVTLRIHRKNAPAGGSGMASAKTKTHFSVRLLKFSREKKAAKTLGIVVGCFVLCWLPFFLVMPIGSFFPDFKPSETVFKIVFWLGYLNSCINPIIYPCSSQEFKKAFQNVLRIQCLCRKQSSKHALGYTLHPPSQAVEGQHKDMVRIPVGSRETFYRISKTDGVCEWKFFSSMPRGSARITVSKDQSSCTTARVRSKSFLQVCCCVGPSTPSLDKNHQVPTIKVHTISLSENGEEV
Experimental: Compounds acting as agonists induce a transient increase of intracellular calcium. This was recorded on the FLIPR system. A measurement of the signal baseline was first recorded every second for 2 minutes before the injection of the compounds. […] Low controls (unstimulated cells) were determined with the addition of 5 μL of assay buffer.

[2] = Comparative solubilities in H2O with pH adjustment; format: physicochemical
Experimental: The relative solubilities of the free base form and the acetate and glycolate salt forms of Compound A were analysed and the results are show in the table below. Solutions were titrated with addition of HCl or NaOH for pH adjustment. The improved aqueous solubilities of the acetate and glycolate salt forms relative to the free base form of Compound A make the acetate and glycolate salts of Compound A more suitable for subcutaneous injection or infusion.

[3] = tested on: isolated rabbit sino-atrial nodes; assay: Sino-atrial node beating rate in isolated rabbit right atrium
Experimental: New Zealand white female rabbits were killed by exsanguination after a deep anesthesia using a mixture of ketamine/xylazine, i.v. The heart was quickly removed and placed in Tyrode's solution. […] The right atrium was separated from the rest of the heart. The preparations were mounted in a tissue bath and kept at 37±0.5° C. for at least one hour stabilization. Action potentials (AP) were intracellularly recorded with a standard glass microelectrode filled with 3 M KCl, connected to a high input impedance-neutralizing amplifier (VF-180 microelectrode amplifier, Bio-Logic). […] After one hour of stabilization, compounds were added to the Tyrode's solution at the increasing concentrations, each concentration being maintained for 30 minutes. There was no wash-out between two concentrations. Electrophysiological measurements were made by analyzing action potentials during the experimental protocol at the end of the 30 minute perfusion period. The SA spontaneous frequency was evaluated by counting the number of beats every 10 seconds to express the results in number of beats per minute (bpm). Data were expressed as mean±SEM.

[4] = tested on: isolated Langendorff perfused rabbit hearts; assay: Automaticity in isolated Langendorff perfused rabbit hearts
[5] = tested on: Wistar Han (W-H) IGS rats; assay: Heart rate in vivo in rats after s.c. bolus; parameters: species or system rat; conditions: up to 0.3 mg/kg, compared to formoterol
Text: Wistar Han (W-H) IGS (International Genetic Standard) rats (Crl:WI(Han)) were purchased from Charles River Laboratories. Femoral arterial and venous catheters were chronically implanted and exteriorized through a spring tether-swivel system and housed in specialized cages. Arterial catheter was connected to a pressure transducer to continuously measure pulse pressure, mean arterial pressure and heart rate, which was derived from the blood pressure signal, via a digital data acquisition system. Compounds were administered via s.c catheter implanted through the skin buttun. Values are expressed as means±SEM (n=3).

[6] = tested on: Rhesus monkeys; assay: Heart rate in vivo in rhesus monkeys after single s.c. administration; parameters: species or system rhesus monkey; conditions: s.c. bolus, up to 0.03 mg/kg; compared to formoterol
Experimental: Rhesus monkeys, 24 females with body weight around 4 to 8 kg, were randomized into 4 groups of n=6. The animals were restrained on a chair up to 4 hours after single subcutaneous administration of compounds, and then returned to their pens. Heart rates were measured using a Surgivet V3304 device. Values are expressed as means±SEM (n=6).

[7] = target: T2, Serotonin 5-HT2C (Homo sapiens, UniProt P28335); assay: Aequorin agonist assay in CHO-K1 cells expressing recombinant Serotonin 5-HT2C and Gα16; format: cell-based
T2 construct: expressed in transfected cells; host or cells: CHO-K1 cells coexpressing mitochondrial apoaequorin and Gα16
Experimental: CHO-K1 cells coexpressing mitochondrial apoaequorin, recombinant Serotonin 5-HT2Cne and the promiscuous G protein Gα16, grown to mid-log phase in culture media without antibiotics were detached with PBS-EDTA, centrifuged and resuspended in assay buffer (DMEM/HAM's F12 with HEPES, without phenol red+0.1% BSA protease free) at a concentration of 1×10^6 cells/ml. Cells were incubated at room temperature for at least 4 h with coelenterazine h. […] For agonist testing, 50 μL of cell suspension were mixed with 50 μL of test or reference agonist in a 96-well plate. The resulting emission of light is recorded using Hamamatsu Functional Drug Screening System 6000 (FDSS 6000) luminometer. Agonist activity of test compound was expressed as a percentage of the activity of the reference agonist at its EC100 concentration.

[8] = target: β2 AR (Homo sapiens, UniProt P07550); assay: cAMP response in CHO cells stably transfected with human β2 adrenoceptor (Test 1)
β2 AR, sequence (P07550 whole entry): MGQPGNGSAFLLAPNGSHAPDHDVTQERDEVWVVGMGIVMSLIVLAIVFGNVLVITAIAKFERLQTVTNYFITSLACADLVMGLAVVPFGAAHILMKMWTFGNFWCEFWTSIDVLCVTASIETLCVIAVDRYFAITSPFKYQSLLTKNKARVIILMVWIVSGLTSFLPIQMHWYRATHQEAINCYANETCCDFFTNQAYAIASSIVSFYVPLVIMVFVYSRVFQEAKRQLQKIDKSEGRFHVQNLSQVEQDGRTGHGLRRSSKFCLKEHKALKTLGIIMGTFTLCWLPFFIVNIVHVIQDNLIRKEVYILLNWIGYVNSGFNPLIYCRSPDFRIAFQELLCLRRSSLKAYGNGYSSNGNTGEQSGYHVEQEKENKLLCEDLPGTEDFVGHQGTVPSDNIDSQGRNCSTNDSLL

T2 sequence (P28335 33-458): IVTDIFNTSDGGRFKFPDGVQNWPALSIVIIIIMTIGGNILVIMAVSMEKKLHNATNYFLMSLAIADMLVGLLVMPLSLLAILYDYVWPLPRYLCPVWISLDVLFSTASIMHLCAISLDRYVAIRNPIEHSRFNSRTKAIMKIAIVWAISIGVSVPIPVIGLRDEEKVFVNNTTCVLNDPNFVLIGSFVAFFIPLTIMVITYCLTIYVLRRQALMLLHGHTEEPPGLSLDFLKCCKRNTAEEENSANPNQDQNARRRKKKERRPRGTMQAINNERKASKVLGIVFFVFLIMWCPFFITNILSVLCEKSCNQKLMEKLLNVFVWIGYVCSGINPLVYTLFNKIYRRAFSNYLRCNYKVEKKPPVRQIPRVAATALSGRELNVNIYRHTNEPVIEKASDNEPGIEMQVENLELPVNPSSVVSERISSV

Row | Compound | melting point | EC50 [1] [µM] | Compound A free base solubility in H2O, Conc ([2]; pH 7.3) [mg/mL] | Compound A free base solubility in H2O, Conc ([2]; pH 7.8) [mg/mL] | Sino-Atrial node beating rate, maximum increase (n = 6) [3] | direct effects on the pacemaker activity ([4]; compared to Formoterol) | Automaticity, maximum increase (n = 3) ([4]; isolated rabbit heart) | heart rate change in rats [5] | heart rate change in rhesus monkeys [6] | fold less active on 5-HT2C when compared to the racemate or the (S) enantiomer [7] | fold less active on 5-HT2C when compared to β2 AR agonist activity ([7]; 5-HT2C EC50 versus β2 AR EC50) [fold] | EC50 [8] [nM]
1 | CCCCOc1ccc(CC(C)(C)NC[C@H](O)c2cc(O)cc3[nH]c(=O)sc23)cc1.O=C(O)CO [Compound A glycolate salt, (R)-7-(2-(1-(4-butoxyphenyl)-2-methylpropan-2-ylamino)-1-hydroxyethyl)-5-hydroxybenzo[d]thiazol-2(3H)-one glycolate salt] | ~ 188 °C |  |  |  |  |  |  |  |  |  |  | 
2 | CCCCOc1ccc(CC(C)(C)NC[C@H](O)c2cc(O)cc3[nH]c(=O)sc23)cc1 [Compound A, (R)-7-(2-(1-(4-butoxyphenyl)-2-methylpropan-2-ylamino)-1-hydroxyethyl)-5-hydroxybenzo[d]thiazol-2(3H)-one] |  | > 10 | <0.01 | <0.01 | +6.2% | less direct effects | +17% | less heart rate increases | less heart rate increase | over 10 fold | 50 | < 10
